The results in this text go back to article PMC5531278 (Bioorganic & medicinal chemistry letters, 2016).

Like-named read-outs stand apart in the source and are kept apart here.

Data set [1] has as its system GL261-luc2. Nature of the data set: MTT cell viability assay in GL261-luc2. It counts as cell-based. Particulars: Mus musculus, 72 h, read-out: MTT assay IC50. On the technique in general: Formazan colour is commonly taken as a measure of viable cells.
The subject of data set [2] is CD-1 mice. Particulars: mouse, in vivo.
Data set [3] is described as follows: in vitro. As to conditions: human, microsomes.
A short description of data set [4]: in vitro. As to conditions: mouse.
A short description of data set [5]: Bidirectional Caco-2 cell monolayer permeability. As to conditions: human, Caco-2, pH 6.5.
Data set [6] concerns Caco-2 cell monolayer. Briefly: Bidirectional Caco-2 cell monolayer permeability. As to conditions: based on the Caco-2 permeability study.

Broadly, the IC50 is the point on the concentration scale where inhibition reaches its midpoint. In general, microsomal CLint refers to the rate of metabolic loss divided by the concentration. One may read the half-life as how long it takes for the measured level to halve. For orientation: Papp A→B means the apparent permeability from the apical to the basolateral side of a cell layer. The low end stands for slow passage, the high end for fast passage. The term Papp B→A denotes how fast a substance crosses the layer from the basolateral side. `O=C(O)c1cc2ccc(N(Cc3ccccc3)Cc3ccccc3)cc2oc1=O` [4a, 7-(dibenzylamino)-2-oxo-2H-chromene-3-carboxylic acid]: the IC50 in data set [1] was more than 250 µM. For the same compound, the “Body weights compared to the control group” value is reported as “no significant difference in body weights” in data set [2] (ip, 20 mg/kg) and “no significant difference in body weights” in data set [2] (po, 100 mg/kg). The “Visible toxic effects or mortality” value in data set [2] (ip, 20 mg/kg) was “did not show any visible toxic effects or mortality”; in data set [2] (po, 100 mg/kg) it was “did not show any visible toxic effects or mortality”. The microsomal CLint at 0.1 μM in data set [3] and in data set [4] (microsomes) was less than 116 µL/min/mg in each case. The half-life at 0.1 μM in data set [4] (microsomes, Half-life Trial 1) stood at 1.51 h; in data set [4] (microsomes, Half-life Trial 2), 1.23 h. The same compound displayed a Papp A→B at 10 µM in data set [5] of 32 ×10⁻⁶ cm/s. In data set [5], this compound had a Papp B→A at 10 µM of 6.4 ×10⁻⁶ cm/s. Besides, the Absorption in data set [6] was ~ 30%.

In the case of `O=C(O)c1cc2ccc(N3CCCC3)cc2oc1=O` [4b], the IC50 in data set [1] was more than 250 µM.

Take `CCCN(CCC)c1ccc2cc(C(=O)O)c(=O)oc2c1` [4c]: in data set [1], the IC50 is more than 250 µM.

Consider `C=CCN(CC=C)c1ccc2cc(C(=O)O)c(=O)oc2c1` [4d], for which the IC50 in data set [1] is more than 250 µM.

`C#CCN(CC#C)c1ccc2cc(C(=O)O)c(=O)oc2c1` [4e]: the half-maximal inhibitory concentration (IC50) in data set [1] was more than 250 µM.

`CC(C)NCC(O)COc1cccc2ccccc12` (centres unmarked) [Propranolol] yielded a half-life at 0.1 μM in data set [4] (liver microsomes, Half-life Trial 2, mouse liver microsomes, 0.1 μM) of 0.158 h.
